Values quoted from earlier work, collected in patent US20230184643A1, “METHOD FOR MEASURING OR IDENTIFYING A COMPONENT OF INTEREST IN SPECIMENS” (SHIMADZU CORPORATION, priority 2020, published 2023).
Marks after values point to notes of the source that are not given here.

Details: Table 4.1; Drug bank accessed November 2020

For `CN[C@@H]1[C@@H](O)[C@@H](O[C@@H]2[C@@H](O)[C@H](O[C@H]3OC(CN)=CC[C@H]3N)[C@@H](N)C[C@H]2N)OC[C@]1(C)O` [Sisomicin], the LogP is given as −4.3^a.
